Laboratory results taken from BindingDB's records for doi:10.1016/S0960-894X(00)80229-2 (1992).

Assay: Agonistic activity at kappa opioid receptor of rabbit vas deferens

Q: With `CC(=O)N1CCN(C(=O)Cc2ccc(Cl)c(Cl)c2)C(CN2CC[C@H](O)C2)C1` (stereo partly drawn) [1-[4-Acetyl-2-((S)-3-hydroxy-pyrrolidin-1-ylmethyl)-piperazin-1-yl]-2-(3,4-dichloro-phenyl)-ethanone] as the compound, how does the IC50 read?
A: 0.22 nM

Q: With `CC(=O)N1CCN(C(=O)Cc2cc(F)cc(F)c2)C(CN2CC[C@H](O)C2)C1` (stereo partly drawn) [1-[4-Acetyl-2-((S)-3-hydroxy-pyrrolidin-1-ylmethyl)-piperazin-1-yl]-2-(3,5-difluoro-phenyl)-ethanone] as the compound, how does the IC50 read?
A: 4.6 nM

Q: Which IC50 does the source give for `COc1cccc(CC(=O)N2CCN(C(C)=O)CC2CN2CC[C@H](O)C2)c1` (stereo partly drawn) [1-[4-Acetyl-2-((S)-3-hydroxy-pyrrolidin-1-ylmethyl)-piperazin-1-yl]-2-(3-methoxy-phenyl)-ethanone] here?
A: 49 nM

Q: For `CC(=O)N1CCN(C(=O)Cc2cccc([N+](=O)[O-])c2)C(CN2CC[C@H](O)C2)C1` (stereo partly drawn) [1-[4-Acetyl-2-((S)-3-hydroxy-pyrrolidin-1-ylmethyl)-piperazin-1-yl]-2-(3-nitro-phenyl)-ethanone], which IC50 is on record?
A: 14 nM

Q: Which IC50 does the source give for `CC(=O)N1CCN(C(=O)Cc2ccc([S+](C)[O-])cc2)C(CN2CC[C@H](O)C2)C1` (stereo partly drawn) [1-[4-Acetyl-2-((S)-3-hydroxy-pyrrolidin-1-ylmethyl)-piperazin-1-yl]-2-(4-methanesulfinyl-phenyl)-ethanone] here?
A: 140 nM

Q: With `CC(=O)N1CCN(C(=O)Cc2ccc(S(C)(=O)=O)cc2)C(CN2CC[C@H](O)C2)C1` (stereo partly drawn) [1-[4-Acetyl-2-((S)-3-hydroxy-pyrrolidin-1-ylmethyl)-piperazin-1-yl]-2-(4-methanesulfonyl-phenyl)-ethanone] as the compound, how does the IC50 read?
A: 0.9 nM

Q: With `COc1ccc(CC(=O)N2CCN(C(C)=O)CC2CN2CC[C@H](O)C2)cc1` (stereo partly drawn) [1-[4-Acetyl-2-((S)-3-hydroxy-pyrrolidin-1-ylmethyl)-piperazin-1-yl]-2-(4-methoxy-phenyl)-ethanone] as the compound, how does the IC50 read?
A: 230 nM

Q: Which IC50 does the source give for `CSc1ccc(CC(=O)N2CCN(C(C)=O)CC2CN2CC[C@H](O)C2)cc1` (stereo partly drawn) [1-[4-Acetyl-2-((S)-3-hydroxy-pyrrolidin-1-ylmethyl)-piperazin-1-yl]-2-(4-methylsulfanyl-phenyl)-ethanone] here?
A: 37 nM

Q: Which IC50 does the source give for `CC(=O)N1CCN(C(=O)Cc2ccc([N+](=O)[O-])cc2)C(CN2CC[C@H](O)C2)C1` (stereo partly drawn) [1-[4-Acetyl-2-((S)-3-hydroxy-pyrrolidin-1-ylmethyl)-piperazin-1-yl]-2-(4-nitro-phenyl)-ethanone] here?
A: 6.3 nM

Q: For `CC(=O)N1CCN(C(=O)Cc2ccc(C(F)(F)F)cc2)C(CN2CC[C@H](O)C2)C1` (stereo partly drawn) [1-[4-Acetyl-2-((S)-3-hydroxy-pyrrolidin-1-ylmethyl)-piperazin-1-yl]-2-(4-trifluoromethyl-phenyl)-ethanone], which IC50 is on record?
A: 1.5 nM

Q: With `CC(=O)N1CCN(C(=O)Cc2ccccc2)C(CN2CC[C@H](O)C2)C1` (stereo partly drawn) [1-[4-Acetyl-2-((S)-3-hydroxy-pyrrolidin-1-ylmethyl)-piperazin-1-yl]-2-phenyl-ethanone] as the compound, how does the IC50 read?
A: 400 nM

Q: With `COC(=O)N1CCN(C(=O)Cc2ccc(Cl)c(Cl)c2)[C@@H](CN2CCCC2)C1` [4-[2-(3,4-Dichloro-phenyl)-acetyl]-3-pyrrolidin-1-ylmethyl-piperazine-1-carboxylic acid methyl ester] as the compound, how does the IC50 read?
A: 0.02 nM
